Laboratory results taken from patent US20230085307A1, “PYRIDAZINONE COMPOUND AND HERBICIDE” (NISSAN CHEMICAL CORPORATION, priority 2019, published 2023).

Columns and labels:
persian speedwell [1] = experiment: Test Example 5: herbicidal effect by foliage application, plastic box (Table 20, symbol R); type: in vivo, Persian speedwell (Veronica persica); settings: foliage application, 320 g/ha, 3 weeks after application
Outline: (§1)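 Sow seeds spot-wise in sterilized diluvial soil; cover with ~1.5 cm soil. Grow 14 days in greenhouse, 25° C. to 30° C. Spray foliage with emulsion diluted to predetermined amount. Rate effect after 3 weeks.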

southern crabgrass [2] = experiment: Test Example 4: herbicidal effect by soil treatment (Table 19, symbol F); type: in vivo, southern crabgrass (Digitaria ciliaris); settings: for herbicidal effect, F: southern crabgrass: amount of applied herbicide 320 g/ha
Outline: (§2)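 Soil-surface application: an emulsion agent diluted with water to the predetermined dose is sprayed uniformly over seeds lying under roughly 1.5 cm of sterilized diluvial soil. Boxes stay in a greenhouse at 25° C. to 30° C. Three weeks later, each species is graded on previously defined criteria.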

blackgrass [3] = experiment: Test Example 4: herbicidal effect by soil treatment (Table 19, symbol J); type: in vivo, blackgrass (Alopecurus myosuroides); settings: for herbicidal effect, J: blackgrass: amount of applied herbicide 320 g/ha
Outline: as §2

green foxtail [4] = experiment: Test Example 4: herbicidal effect by soil treatment (Table 19, symbol G); type: in vivo, green foxtail (Setaria viridis); settings: for herbicidal effect, G: green foxtail: amount of applied herbicide 320 g/ha
Outline: as §2

barnyard grass [5] = experiment: Test Example 5: herbicidal effect by foliage application, plastic box (Table 20, symbol H); type: in vivo, barnyard grass (Echinochloa crus-galli); settings: foliage application, 320 g/ha, 3 weeks after application
Outline: as §1

rice flat sedge = experiment: Test Example 3: herbicidal effect by foliage application, Wagner pot (Table 18, symbol E); type: in vivo, rice flat sedge (Cyperus iria); settings: for herbicidal effect on E: rice flat sedge: amount of applied herbicide 320 g/ha
Outline: (§3)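 Plants were sown in alluvial soil held under 0.1–0.5 cm standing water and grown 14 days in a greenhouse at 25–30 °C. An emulsifiable formulation, water-diluted to the set dose, was then sprayed onto the foliage, and effects were scored three weeks later using previously defined criteria.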

Italian ryegrass [6] = experiment: Test Example 4: herbicidal effect by soil treatment (Table 19, symbol K); type: in vivo, Italian ryegrass (Lolium multiflorum); settings: for herbicidal effect, K: Italian ryegrass: amount of applied herbicide 320 g/ha
Outline: as §2

redroot pigweed = experiment: Test Example 4: herbicidal effect by soil treatment (Table 19, symbol N); type: in vivo, redroot pigweed (Amaranthus retroflexus); settings: for herbicidal effect, N: redroot pigweed: amount of applied herbicide 320 g/ha
Outline: as §2

Chinese sprangletop = experiment: Test Example 3: herbicidal effect by foliage application, Wagner pot (Table 18, symbol D); type: in vivo, chinese sprangletop (Leptochloa chinensis); settings: for herbicidal effect on D: Chinese sprangletop: amount of applied herbicide 320 g/ha
Outline: as §3

lambsquarters [7] = experiment: Test Example 5: herbicidal effect by foliage application, plastic box (Table 20, symbol O); type: in vivo, lambsquarters (Chenopodium album); settings: foliage application, 320 g/ha, 3 weeks after application
Outline: as §1

barnyard grass [8] = experiment: Test Example 3: herbicidal effect by foliage application, Wagner pot (Table 18, symbol H); type: in vivo, barnyard grass (Echinochloa crus-galli); settings: for herbicidal effect on H: barnyard grass: amount of applied herbicide 320 g/ha
Outline: as §3

wild oat [9] = experiment: Test Example 5: herbicidal effect by foliage application, plastic box (Table 20, symbol I); type: in vivo, wild oat (Avena fatua); settings: foliage application, 320 g/ha, 3 weeks after application
Outline: as §1

Italian ryegrass [10] = experiment: Test Example 5: herbicidal effect by foliage application, plastic box (Table 20, symbol K); type: in vivo, Italian ryegrass (Lolium multiflorum); settings: foliage application, 320 g/ha, 3 weeks after application
Outline: as §1

chickweed = experiment: Test Example 4: herbicidal effect by soil treatment (Table 19, symbol P); type: in vivo, common chickweed (Stellaria media); settings: for herbicidal effect, P: chickweed: amount of applied herbicide 320 g/ha
Outline: as §2

southern crabgrass [11] = experiment: Test Example 5: herbicidal effect by foliage application, plastic box (Table 20, symbol F); type: in vivo, southern crabgrass (Digitaria ciliaris); settings: foliage application, 320 g/ha, 3 weeks after application
Outline: as §1

lambsquarters [12] = experiment: Test Example 4: herbicidal effect by soil treatment (Table 19, symbol O); type: in vivo, lambsquarters (Chenopodium album); settings: for herbicidal effect, O: lambsquarters: amount of applied herbicide 320 g/ha
Outline: as §2

blackgrass [13] = experiment: Test Example 5: herbicidal effect by foliage application, plastic box (Table 20, symbol J); type: in vivo, blackgrass (Alopecurus myosuroides); settings: foliage application, 320 g/ha, 3 weeks after application
Outline: as §1

persian speedwell [14] = experiment: Test Example 4: herbicidal effect by soil treatment (Table 19, symbol R); type: in vivo, Persian speedwell (Veronica persica); settings: for herbicidal effect, R: persian speedwell: amount of applied herbicide 320 g/ha
Outline: as §2

windgrass [15] = experiment: Test Example 5: herbicidal effect by foliage application, plastic box (Table 20, symbol L); type: in vivo, windgrass (Apera spica-venti); settings: foliage application, 320 g/ha, 3 weeks after application
Outline: as §1

velvetleaf [16] = experiment: Test Example 5: herbicidal effect by foliage application, plastic box (Table 20, symbol M); type: in vivo, velvetleaf (Abutilon theophrasti); settings: foliage application, 320 g/ha, 3 weeks after application
Outline: as §1

windgrass [17] = experiment: Test Example 4: herbicidal effect by soil treatment (Table 19, symbol L); type: in vivo, windgrass (Apera spica-venti); settings: for herbicidal effect, L: windgrass: amount of applied herbicide 320 g/ha
Outline: as §2

barnyard grass [18] = experiment: Test Example 4: herbicidal effect by soil treatment (Table 19, symbol H); type: in vivo, barnyard grass (Echinochloa crus-galli); settings: for herbicidal effect, H: barnyard grass: amount of applied herbicide 320 g/ha
Outline: as §2

green foxtail [19] = experiment: Test Example 5: herbicidal effect by foliage application, plastic box (Table 20, symbol G); type: in vivo, green foxtail (Setaria viridis); settings: foliage application, 320 g/ha, 3 weeks after application
Outline: as §1

velvetleaf [20] = experiment: Test Example 4: herbicidal effect by soil treatment (Table 19, symbol M); type: in vivo, velvetleaf (Abutilon theophrasti); settings: for herbicidal effect, M: velvetleaf: amount of applied herbicide 320 g/ha
Outline: as §2

wild oat [21] = experiment: Test Example 4: herbicidal effect by soil treatment (Table 19, symbol I); type: in vivo, wild oat (Avena fatua); settings: for herbicidal effect, I: wild oat: amount of applied herbicide 320 g/ha
Outline: as §2

CCCC(=O)Oc1c(OC)nn(C)c(=O)c1-c1c(-c2cc3ccccc3s2)sc2ccccc12 [1-197]
effect on persian speedwell (R) (persian speedwell [1]): 5 (Herbicidal rate of 90% or more (almost completely withered)) | F: southern crabgrass, herbicidal effect rating (southern crabgrass [2]; AAH 320 g/ha): 0 (Herbicidal rate of 5% or less (almost no effect)) | J: blackgrass, herbicidal effect rating (blackgrass [3]; AAH 320 g/ha): 0 (Herbicidal rate of 5% or less (almost no effect)) | G: green foxtail, herbicidal effect rating (green foxtail [4]; AAH 320 g/ha): 0 (Herbicidal rate of 5% or less (almost no effect)) | effect on barnyard grass (H) (barnyard grass [5]): 0 (Herbicidal rate of 5% or less (almost no effect)) | herbicidal effect on E (rice flat sedge), rating 0-5 (rice flat sedge; 320 g/ha): 4 (Herbicidal rate of 70% or more and less than 90%) | K: Italian ryegrass, herbicidal effect rating (Italian ryegrass [6]; AAH 320 g/ha): 0 (Herbicidal rate of 5% or less (almost no effect)) | N: redroot pigweed, herbicidal effect rating (redroot pigweed; AAH 320 g/ha): 0 (Herbicidal rate of 5% or less (almost no effect)) | herbicidal effect on D (Chinese sprangletop), rating 0-5 (Chinese sprangletop; 320 g/ha): 2 (Herbicidal rate of 20% or more and less than 40%) | effect on lambsquarters (O) (lambsquarters [7]): 1 (Herbicidal rate of 5% or more and less than 20%) | herbicidal effect on H (barnyard grass), rating 0-5 (barnyard grass [8]; 320 g/ha): 4 (Herbicidal rate of 70% or more and less than 90%) | effect on wild oat (I) (wild oat [9]): 0 (Herbicidal rate of 5% or less (almost no effect)) | effect on Italian ryegrass (K) (Italian ryegrass [10]): 0 (Herbicidal rate of 5% or less (almost no effect)) | P: chickweed, herbicidal effect rating (chickweed; AAH 320 g/ha): 5 (Herbicidal rate of 90% or more (almost completely withered)) | effect on southern crabgrass (F) (southern crabgrass [11]): 0 (Herbicidal rate of 5% or less (almost no effect)) | O: lambsquarters, herbicidal effect rating (lambsquarters [12]; AAH 320 g/ha): 0 (Herbicidal rate of 5% or less (almost no effect)) | effect on blackgrass (J) (blackgrass [13]): 0 (Herbicidal rate of 5% or less (almost no effect)) | R: persian speedwell, herbicidal effect rating (persian speedwell [14]; AAH 320 g/ha): 5 (Herbicidal rate of 90% or more (almost completely withered)) | effect on windgrass (L) (windgrass [15]): 0 (Herbicidal rate of 5% or less (almost no effect)) | effect on velvetleaf (M) (velvetleaf [16]): 3 (Herbicidal rate of 40% or more and less than 70%) | L: windgrass, herbicidal effect rating (windgrass [17]; AAH 320 g/ha): 0 (Herbicidal rate of 5% or less (almost no effect)) | H: barnyard grass, herbicidal effect rating (barnyard grass [18]; AAH 320 g/ha): 0 (Herbicidal rate of 5% or less (almost no effect)) | effect on green foxtail (G) (green foxtail [19]): 1 (Herbicidal rate of 5% or more and less than 20%) | M: velvetleaf, herbicidal effect rating (velvetleaf [20]; AAH 320 g/ha): 0 (Herbicidal rate of 5% or less (almost no effect)) | I: wild oat, herbicidal effect rating (wild oat [21]; AAH 320 g/ha): 0 (Herbicidal rate of 5% or less (almost no effect))

CCCC(=O)Oc1c(C)nn(C)c(=O)c1-c1c(-c2ccc(OC)cc2F)sc2ccc(F)cc12 [2-365]
herbicidal effect, F: southern crabgrass (southern crabgrass [2]): 0 (Herbicidal rate of 5% or less (almost no effect)) | herbicidal effect, J: blackgrass (blackgrass [3]): 0 (Herbicidal rate of 5% or less (almost no effect)) | herbicidal effect, G: green foxtail (green foxtail [4]): 0 (Herbicidal rate of 5% or less (almost no effect)) | herbicidal effect on E: rice flat sedge (rice flat sedge): 5 (Herbicidal rate of 90% or more (almost completely withered)) | herbicidal effect, K: Italian ryegrass (Italian ryegrass [6]): 0 (Herbicidal rate of 5% or less (almost no effect)) | herbicidal effect, N: redroot pigweed (redroot pigweed): 3 (Herbicidal rate of 40% or more and less than 70%) | herbicidal effect on D: Chinese sprangletop (Chinese sprangletop): 5 (Herbicidal rate of 90% or more (almost completely withered)) | herbicidal effect on H: barnyard grass (barnyard grass [8]): 4 (Herbicidal rate of 70% or more and less than 90%) | herbicidal effect, P: chickweed (chickweed): 0 (Herbicidal rate of 5% or less (almost no effect)) | herbicidal effect, O: lambsquarters (lambsquarters [12]): 1 (Herbicidal rate of 5% or more and less than 20%) | herbicidal effect, R: persian speedwell (persian speedwell [14]): 0 (Herbicidal rate of 5% or less (almost no effect)) | herbicidal effect, L: windgrass (windgrass [17]): 0 (Herbicidal rate of 5% or less (almost no effect)) | herbicidal effect, H: barnyard grass (barnyard grass [18]): 0 (Herbicidal rate of 5% or less (almost no effect)) | herbicidal effect, M: velvetleaf (velvetleaf [20]): 0 (Herbicidal rate of 5% or less (almost no effect)) | herbicidal effect, I: wild oat (wild oat [21]): 0 (Herbicidal rate of 5% or less (almost no effect))

COc1ccc(F)c(-c2sc3ccc(F)cc3c2-c2c(O)c(C)nn(C)c2=O)c1 [2-366]
herbicidal effect, F: southern crabgrass (southern crabgrass [2]): 3 (Herbicidal rate of 40% or more and less than 70%) | herbicidal effect, J: blackgrass (blackgrass [3]): 2 (Herbicidal rate of 20% or more and less than 40%) | herbicidal effect, G: green foxtail (green foxtail [4]): 0 (Herbicidal rate of 5% or less (almost no effect)) | herbicidal effect on E: rice flat sedge (rice flat sedge): 3 (Herbicidal rate of 40% or more and less than 70%) | herbicidal effect, K: Italian ryegrass (Italian ryegrass [6]): 4 (Herbicidal rate of 70% or more and less than 90%) | herbicidal effect, N: redroot pigweed (redroot pigweed): 4 (Herbicidal rate of 70% or more and less than 90%) | herbicidal effect on D: Chinese sprangletop (Chinese sprangletop): 0 (Herbicidal rate of 5% or less (almost no effect)) | herbicidal effect on H: barnyard grass (barnyard grass [8]): 3 (Herbicidal rate of 40% or more and less than 70%) | herbicidal effect, P: chickweed (chickweed): 3 (Herbicidal rate of 40% or more and less than 70%) | herbicidal effect, O: lambsquarters (lambsquarters [12]): 2 (Herbicidal rate of 20% or more and less than 40%) | herbicidal effect, R: persian speedwell (persian speedwell [14]): 3 (Herbicidal rate of 40% or more and less than 70%) | herbicidal effect, L: windgrass (windgrass [17]): 0 (Herbicidal rate of 5% or less (almost no effect)) | herbicidal effect, H: barnyard grass (barnyard grass [18]): 0 (Herbicidal rate of 5% or less (almost no effect)) | herbicidal effect, M: velvetleaf (velvetleaf [20]): 0 (Herbicidal rate of 5% or less (almost no effect)) | herbicidal effect, I: wild oat (wild oat [21]): 0 (Herbicidal rate of 5% or less (almost no effect))

Cc1nn(C)c(=O)c(-c2c(-c3cnccc3F)sc3ccc(F)cc23)c1O [2-383]
herbicidal effect, F: southern crabgrass (southern crabgrass [2]): 4 (Herbicidal rate of 70% or more and less than 90%) | herbicidal effect, J: blackgrass (blackgrass [3]): 4 (Herbicidal rate of 70% or more and less than 90%) | herbicidal effect, G: green foxtail (green foxtail [4]): 4 (Herbicidal rate of 70% or more and less than 90%) | herbicidal effect on E: rice flat sedge (rice flat sedge): 5 (Herbicidal rate of 90% or more (almost completely withered)) | herbicidal effect, K: Italian ryegrass (Italian ryegrass [6]): 4 (Herbicidal rate of 70% or more and less than 90%) | herbicidal effect, N: redroot pigweed (redroot pigweed): 5 (Herbicidal rate of 90% or more (almost completely withered)) | herbicidal effect on D: Chinese sprangletop (Chinese sprangletop): 5 (Herbicidal rate of 90% or more (almost completely withered)) | herbicidal effect on H: barnyard grass (barnyard grass [8]): 5 (Herbicidal rate of 90% or more (almost completely withered)) | herbicidal effect, P: chickweed (chickweed): 4 (Herbicidal rate of 70% or more and less than 90%) | herbicidal effect, O: lambsquarters (lambsquarters [12]): 4 (Herbicidal rate of 70% or more and less than 90%) | herbicidal effect, R: persian speedwell (persian speedwell [14]): 5 (Herbicidal rate of 90% or more (almost completely withered)) | herbicidal effect, L: windgrass (windgrass [17]): 3 (Herbicidal rate of 40% or more and less than 70%) | herbicidal effect, H: barnyard grass (barnyard grass [18]): 3 (Herbicidal rate of 40% or more and less than 70%) | herbicidal effect, M: velvetleaf (velvetleaf [20]): 4 (Herbicidal rate of 70% or more and less than 90%) | herbicidal effect, I: wild oat (wild oat [21]): 3 (Herbicidal rate of 40% or more and less than 70%)
